The source of these data is US20250162994A1, “DUAL LSD1/HDAC INHIBITORS” (JUBILANT EPICORE LLC, priority 2022, published 2025).

Molecules are shown by their SMILES.

Common to all, as to type: biochemical
Assay [1] addresses HDAC1 (Homo sapiens (Human), UniProt Q13547). The assay is described as follows: Histone deacetylase assay (BPS Biosciences), HDAC1. Particulars: human recombinant enzyme. How it is done:
Histone deacetylase assay was done as per manufacturer's instructions. Briefly, assay buffer, 200 uM HDAC substrate (fluorogenic HDAC acetylated peptide substrate for class I HDACs (HDACs 1, 2 and 3) and class 2b HDACs (HDACs 6 and 10) and 1% BSA are taken as a master mixture and aliquoted as 40 uL per well. Compounds (10×) were diluted in assay buffer and were added to respective wells of a black 96 well plate. For HDAC1 (1.4 ng/μL) and for HDAC6 (7 ng/μL) human recombinant enzyme was thawed on ice and 5 μL of respective enzyme was added per well. The plate was incubated at 37° C. for 1 hour. Developer solution was then added (50 μL per well) and incubated at room temperature for 10 minutes. Fluorescence was measured at an excitation wavelength of 350-380 nm and emission wavelength of 440-480 nm.

In assay [2] the target is LSD1 (Homo sapiens (Human), UniProt O60341). The assay is described as follows: TR-FRET assay for LSD1 (Perkin Elmer). How it is done:
LSD1 enzyme was produced in house. Tranylcypromine (TCP), LSD1 inhibitor was procured from Selleckchem. LSD1 enzyme, TCP and Biotinylated peptide substrate were diluted in assay buffer just before use. 2× inhibitor (10 μL, diluted in assay buffer) or Assay Buffer, and 5 nM enzyme were added to a 96 well plate and incubated at room temperature for 30 min. […] Stop Solution containing 300 μM tranylcypromine in 1×LANCE Detection Buffer was added to the wells and incubated for 5 min at RT. Then, Detection mixture containing 2 nM Eu-Ab and 50 nM ULight-Streptavidin in 1×LANCE Detection Buffer was prepared and added to the reaction mixture. This mixture was incubated for 1 hour at room temperature.
Background: TR-FRET usually uses a lanthanide donor and a delayed reading to cut background.

Assay [3] has as its target HDAC6 (Homo sapiens (Human), UniProt Q9UBN7). The assay is described as follows: Histone deacetylase assay (BPS Biosciences), HDAC6. Particulars: human recombinant enzyme. How it is done: Histone deacetylase assay was done as per manufacturer's instructions. […] Fluorescence was measured at an excitation wavelength of 350-380 nm and emission wavelength of 440-480 nm.

Chain of HDAC6 (Q9UBN7 whole entry): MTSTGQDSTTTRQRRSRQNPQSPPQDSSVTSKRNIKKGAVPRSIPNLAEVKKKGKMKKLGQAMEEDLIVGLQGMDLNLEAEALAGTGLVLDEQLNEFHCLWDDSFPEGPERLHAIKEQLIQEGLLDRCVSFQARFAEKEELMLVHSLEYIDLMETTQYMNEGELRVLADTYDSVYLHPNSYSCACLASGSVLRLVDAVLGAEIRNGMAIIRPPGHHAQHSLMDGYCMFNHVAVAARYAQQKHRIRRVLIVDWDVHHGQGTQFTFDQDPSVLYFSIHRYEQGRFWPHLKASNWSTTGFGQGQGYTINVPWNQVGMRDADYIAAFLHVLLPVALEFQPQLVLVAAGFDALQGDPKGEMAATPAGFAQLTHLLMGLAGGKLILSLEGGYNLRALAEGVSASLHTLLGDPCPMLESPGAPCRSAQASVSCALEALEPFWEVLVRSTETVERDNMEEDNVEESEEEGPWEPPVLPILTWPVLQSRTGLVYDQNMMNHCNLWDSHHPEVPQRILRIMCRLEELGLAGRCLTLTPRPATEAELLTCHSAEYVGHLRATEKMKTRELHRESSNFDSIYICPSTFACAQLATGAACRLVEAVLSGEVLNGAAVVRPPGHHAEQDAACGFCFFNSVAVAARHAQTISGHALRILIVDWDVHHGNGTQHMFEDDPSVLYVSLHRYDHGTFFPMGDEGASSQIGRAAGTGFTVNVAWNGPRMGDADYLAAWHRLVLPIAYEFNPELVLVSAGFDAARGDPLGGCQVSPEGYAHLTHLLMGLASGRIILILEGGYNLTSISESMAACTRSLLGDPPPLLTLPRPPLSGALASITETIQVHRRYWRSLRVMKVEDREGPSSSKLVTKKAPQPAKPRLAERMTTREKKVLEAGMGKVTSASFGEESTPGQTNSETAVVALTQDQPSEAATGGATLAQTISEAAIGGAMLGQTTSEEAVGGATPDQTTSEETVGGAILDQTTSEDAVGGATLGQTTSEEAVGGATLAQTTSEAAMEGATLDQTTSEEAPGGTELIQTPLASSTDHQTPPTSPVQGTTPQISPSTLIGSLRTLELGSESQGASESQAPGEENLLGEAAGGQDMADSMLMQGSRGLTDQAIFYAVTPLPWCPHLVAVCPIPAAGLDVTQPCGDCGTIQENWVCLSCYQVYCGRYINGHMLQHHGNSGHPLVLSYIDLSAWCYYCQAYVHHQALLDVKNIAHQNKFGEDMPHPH
Chain of HDAC1 (Q13547 whole entry): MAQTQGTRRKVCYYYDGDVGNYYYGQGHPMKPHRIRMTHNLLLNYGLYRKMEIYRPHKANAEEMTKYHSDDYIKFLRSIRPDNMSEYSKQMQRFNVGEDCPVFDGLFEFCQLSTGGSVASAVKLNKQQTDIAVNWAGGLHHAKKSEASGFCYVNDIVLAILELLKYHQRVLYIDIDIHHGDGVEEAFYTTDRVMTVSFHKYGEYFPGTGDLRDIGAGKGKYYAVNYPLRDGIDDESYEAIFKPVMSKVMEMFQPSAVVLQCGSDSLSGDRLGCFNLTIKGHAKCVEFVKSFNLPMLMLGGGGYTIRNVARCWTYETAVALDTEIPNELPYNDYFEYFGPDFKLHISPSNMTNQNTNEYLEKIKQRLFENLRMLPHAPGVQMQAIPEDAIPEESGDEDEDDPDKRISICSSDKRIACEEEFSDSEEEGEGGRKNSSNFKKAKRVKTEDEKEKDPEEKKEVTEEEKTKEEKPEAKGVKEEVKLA

As a reminder, the IC50 is the concentration that inhibits the measured activity by half. Consider `O=C(NO)c1ccc(CCCN2CCC(CN[C@@H]3C[C@H]3c3ccc(-c4cncnc4)cc3)CC2)cc1` [Compound 7, N-hydroxy-4-(3-(4-((((1R,2S)-2-(4-(pyrimidin-5-yl)phenyl)cyclopropyl)amino)methyl)piperidin-1-yl)propyl)benzamide], for which the IC50 in assay [1] was 4530 nM; in assay [2], 6 nM; in assay [3], 151 nM.

Consider `O=C(NO)c1ccc(CCCN2CCC(CN[C@H]3C[C@@H]3c3ccc(-c4cncnc4)cc3)CC2)cc1` [Compound 8, N-hydroxy-4-(3-(4-((((1S,2R)-2-(4-(pyrimidin-5-yl)phenyl)cyclopropyl)amino)methyl)piperidin-1-yl)propyl)benzamide], for which the IC50 in assay [1] turned out to be 2470 nM; in assay [2], 8 nM; in assay [3], 159 nM.

On to `CN1C(=O)C(C)(C)c2cc([C@H]3C[C@@H]3NCC3CCN(CCCc4ccc(C(=O)NO)cc4)CC3)ccc21` [Compound 10, N-hydroxy-4-(3-(4-((((1S,2R)-2-(1,3,3-trimethyl-2-oxoindolin-5-yl)cyclopropyl)amino)methyl)piperidin-1-yl)propyl)benzamide], for which the IC50 in assay [2] came to 1210 nM; in assay [3] it was 135 nM.

Regarding `Nc1ccccc1NC(=O)c1ccc(Cn2cc(CN[C@@H]3C[C@H]3c3ccccc3)cn2)cc1` [Compound 30, N-(2-aminophenyl)-4-((4-((((1R,2S)-2-phenylcyclopropyl)amino)methyl)-1H-pyrazol-1-yl)methyl)benzamide], the half-maximal inhibitory concentration (IC50) in assay [1] was 181 nM; in assay [2] it was 27 nM; in assay [3], more than 10000 nM.

As for `CN1C(=O)C(C)(C)c2cc([C@@H]3C[C@H]3NCC3CCN(CCCc4ccc(C(=O)NO)cc4)CC3)ccc21` [Compound 9, N-hydroxy-4-(3-(4-((((1R,2S)-2-(1,3,3-trimethyl-2-oxoindolin-5-yl)cyclopropyl)amino)methyl)piperidin-1-yl)propyl)benzamide], the IC50 in assay [2] stood at 403 nM; in assay [3], 192 nM.
